Legend:
peritoneal macrophages [1] = experiment: TNFá production by peritoneal macrophages in response to lipoprotein, LPS or PGN (ELISA); format: cell-based; settings: macrophages from TLR6 knockout mouse (TLR6−/−) compared with wild-type; 24 hours; 10 μM lipoprotein, 100 ng/ml LPS, various concentrations of PGN; FIG. 3
Description: (§1) Each of wild-type (wild-type), TLR6 knockout (TLR6−/−) and TLR2 knockout (TLR2−/−) mice were intraperitoneally injected with 2 ml of 4% thioglycollate medium (DIFCO). Three days later, peritoneal exudate cells were isolated from the peritoneal cavity of each mouse. These cells were cultured in RPMI1640 medium (GIBCO) supplemented with 10% fetal bovine serum (GIBCO) for 2 hours at 37° C. and washed with ice-cold Hank's buffered salt solution (HBSS; GIBCO) to remove nonadherent cells. Adherent cells were used as peritoneal macrophages for the following experiments.
Therefore, responsiveness of TLR6 knockout mouse to these LPS, lipoprotein derived from Spirochaeta, and peptidoglycan derived from Staphylococcus aureus was examined. Peritoneal macrophages (5×10^4 cells) of wild-type and TLR6 knockout mice prepared in Example 2 were cultured for 24 hours together with 10 μM B. burgdorferi-derived lipoprotein OspA or OspC, 10 μM T. pallidum-derived lipoprotein 17-kDa (17) or 47-kDa (47), 100 ng/ml LPS, or various concentrations of peptidoglycan (PGN) shown in FIG. 3. When culture was completed, concentrations of TNFá in culture supernatants were measured by ELISA respectively.

peritoneal macrophages [2] = experiment: TNF-á production by peritoneal macrophages stimulated with lipopeptide; format: cell-based, mouse; settings: 24 hours, various concentrations, FIG. 4
Description: as §1
(§2) Responsiveness of peritoneal macrophages derived from a wild-type mouse or a TLR6 knockout mouse to lipopeptide was examined with synthetic Gram negative bacteria-derived lipopeptide JBT3002 and synthetic mycoplasma-derived lipopeptide MALP-2. Peritoneal macrophages (5×10^4 cells) of wild-type and TLR6 knockout mice prepared in Example 2 were cultured for 24 hours together with various concentrations of JBT3002 (provided by Dr. Z. Dong) or MALP-2 (provided by Dr. P. F. Muhlradt) shown in FIG. 4, and stimulated. When culture was completed, the production amounts of TNF-á (TNFá) and NO2^− (NO) in culture supernatants were measured (FIG. 4). NO2^− was measured by the Greiss method using NO2/NO3 Assay Kit (Dojindo Laboratories).

peritoneal macrophages [3] = experiment: NO2^− production by peritoneal macrophages stimulated with lipopeptide (Greiss method); format: cell-based, mouse; settings: 24 hours, various concentrations, FIG. 4
Description: as §1, §2

NF-êB = NF-êB activation in peritoneal macrophages (nucleoprotein binding to NF-êB DNA probe, electrophoresis, autoradiography); format: cell-based, mouse; settings: 0.1 ng/ml JBT3002 or 0.3 ng/ml MALP-2 for 20 or 40 minutes, FIG. 5
Description: as §1
It is known that TLR signals activate IRAK, which is serine/threonine kinase, via an adapter molecule MyD88 and then activate MAP kinase and NF-êB (Immunity 11, 115-122, 1999). In addition, it is also known that a mycoplasma-derived lipoprotein/lipopeptide causes vital reaction via TLR2 and MyD88 signaling pathways (J. Immunol. 164, 554-557, 2000). Consequently, with wild-type, TLR6 knockout and TLR2 knockout mice, whether a bacteria-derived lipoprotein/lipopeptide activates intracellular signaling molecules was examined. Peritoneal macrophages (1×10^6 cells) of wild-type (wild-type) and TLR6 knockout (TLR6−/−) and TLR2 knockout (TLR2−/−) mice prepared in Example 2 were stimulated with 0.1 ng/ml JBT3002 or 0.3 ng/ml MALP-2 for 20 or 40 minutes, and nucleoproteins were extracted from macrophages of each mouse and incubated with a specific probe containing DNA binding site of NF-êB, then subjected to electrophoresis and visualized by autoradiography (FIG. 5).

[4] = macrophages from TLR6 knockout mouse (TLR6−/−)
[5] = macrophages from wild-type mouse

Molecule: lipopolysaccharide [LPS]
- TNFá in culture supernatant (peritoneal macrophages [1]): approximately the same amount of TNFá as macrophages derived from a wild-type mouse

Molecule: OspA: B. burgdorferi-derived lipoprotein
- TNFá in culture supernatant (peritoneal macrophages [1]): approximately the same amount of TNFá as macrophages derived from a wild-type mouse

Molecule: peptidoglycan [PGN]
- TNFá in culture supernatant (peritoneal macrophages [1]): approximately the same amount of TNFá as macrophages derived from a wild-type mouse

Molecule: MALP-2
- production amount of TNF-á (peritoneal macrophages [2]; [4]): produced no TNF-á and NO2^−
- production amount of TNF-á (peritoneal macrophages [2]; [5]): increased the production amounts of TNF-á (TNFá) and NO2^− (NO) in a manner dependent on doses
- production amount of NO2^− (peritoneal macrophages [3]; [4]): produced no TNF-á and NO2^−
- production amount of NO2^− (peritoneal macrophages [3]; [5]): increased the production amounts of TNF-á (TNFá) and NO2^− (NO) in a manner dependent on doses
- activation of NF-êB (NF-êB; macrophages from TLR2 knockout mouse (TLR2−/−)): no activation was observed
- activation of NF-êB (NF-êB; [4]): no activation in response to MALP-2 was observed
- activation of NF-êB (NF-êB; [5]): activation of NF-êB in response to the stimulation with MALP-2 or JBT3002 was observed

B1: OspC: B. burgdorferi-derived lipoprotein (protein, UniProt Q07337 19-210, looked up)
Outer surface protein C: CNNSGKDGNTSANSADESVKGPNLTEISKKITDSNAVLLAVKEVEALLSSIDEIAAKAIGKKIHQNNGLDTENNHNGSLLAGAYAISTLIKQKLDGLKNEGLKEKIDAAKKCSETFTNKLKEKHTDLGKEGVTDADAKEAILKTNGTKTKGAEELGKLFESVEVLSKAAKEMLANSVKELTSPVVAESPKKP
- TNFá in culture supernatant (peritoneal macrophages [1]): approximately the same amount of TNFá as macrophages derived from a wild-type mouse

Reference: patent US7371921B2, “Nonhuman animal model non-responsive to mycoplasma-origin lipoprotein/lipopeptide” (Japan Science and Technology Agency, priority 2000, dated 2008)
